EPA's ToxValDB 9.5 (doi:10.2903/j.efsa.2013.3270)

Tests used:
[1] = tested on: Apis mellifera; conditions: acute, duration: 48 hours, mortality
[2] = tested on: Oncorhynchus mykiss; conditions: acute; duration: 96 hours; mortality
[3] = tested on: Pimephales promelas; conditions: chronic/long-term; duration: 35 days; other
[4] = tested on: Anas platyrhynchos; conditions: chronic/long-term
[5] = tested on: Folsomia candida; conditions: chronic/long-term; duration: 28 days
[6] = tested on: Rattus norvegicus
[7] = tested on: Tagia sp.; conditions: acute; duration: 14 days; mortality
[8] = tested on: Daphnia magna; conditions: chronic/long-term; duration: 21 days; reproduction
[9] = tested on: Colinus virginianus; conditions: acute, oral, mortality
[10] = tested on: Typhlodromus pyri; experiment: LR50; higher = less toxic; conditions: not reported; mortality
[11] = tested on: Aphidius rhopalosiphi; experiment: LR50; higher = less toxic; conditions: not reported; mortality

COC(=O)c1csc(C)c1S(=O)(=O)NC(=O)n1nc(OC)n(C)c1=O [Thiencarbazone-methyl]
LD50 ([1]; dermal): > 200 µg/piece
LD50 ([1]; oral, unspecified): > 199 µg/piece
LC50 [2]: > 104 µg/mL
NOEC [3]: 4.8 mg/L
NOEL [4]: 24 mg/kg-day
NOEC [5]: 1000 mg/kg
LD50 ([6]; acute, oral, mortality): > 2000 mg/kg-day
NOEL ([6]; chronic): 946 mg/kg-day
NOAEL ([6]; chronic, duration: 2 years): 22.8 mg/kg-day
NOAEL ([6]; subchronic, duration: 90 days, oral): 24.7 mg/kg-day
LC50 [7]: > 1000 mg/kg
NOEC [8]: 3.54 mg/L
LD50 ([9]; diet): > 699 mg/kg-day
LD50 [9]: > 2000 mg/kg-day
LR50 [10]: > 0.45 g/ha
LR50 [11]: > 45 g/ha
